In assay [1] the target is T1, SNM1B (Homo sapiens, UniProt Q9H816).
T1 construct: for the MBL and β-CASP domains of SNM1B (aa 1–335) into baculoviral expression vectors pFB-CT10HF-LIC; made in house; host or cells: Sf9 insect cells (baculovirus)
T1 sequence (Q9H816 1-335): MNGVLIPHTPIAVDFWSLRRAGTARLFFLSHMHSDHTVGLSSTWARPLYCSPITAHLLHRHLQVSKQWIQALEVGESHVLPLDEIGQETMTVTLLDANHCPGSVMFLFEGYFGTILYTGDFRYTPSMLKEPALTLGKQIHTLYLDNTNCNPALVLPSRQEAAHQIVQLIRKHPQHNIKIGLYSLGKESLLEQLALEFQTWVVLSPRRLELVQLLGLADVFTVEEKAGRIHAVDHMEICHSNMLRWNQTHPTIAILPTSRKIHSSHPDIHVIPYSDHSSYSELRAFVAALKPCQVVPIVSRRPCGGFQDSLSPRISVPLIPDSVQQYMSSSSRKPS
The assay can be described thus: gel-based nuclease assay, SNM1B. As to conditions: 1 nM SNM1B. The assay is classed as biochemical. The text has this:
To validate the inhibition of SNM1A, SNM1B, and SNM1C observed in the fluorescence-based screening assays, we then performed gel-based assays using 3′ terminally-labelled oligonucleotide substrates that enable both quantitative and qualitative (visual) assessment of the pattern of inhibition, for a subset of compounds. Importantly, whereas the fluorescence-based assay measures a single hydrolytic event at the substrate terminus, the gel-based nuclease assay informs on the pattern of digestion of the entire 51-mer substrate DNA over time.
Standard exonuclease assays were carried out in a 10 μL final volume containing 20 mM HEPES-KOH, pH 7.5, 50 mM KCl, 0.5 mM TCEP, 10 mM MgCl2, 0.05% (v/v) Triton X-100, 5% (v/v) glycerol, and SNM1 proteins as indicated. Inhibitors were dissolved in DMSO and diluted immediately prior to the reaction in the above buffer. Inhibitors were serially diluted two-fold from 100 μM. The DMSO concentration was kept constant at 0.1% (v/v) in the final reaction mixture. Inhibitors were incubated with the indicated SNM1 enzyme for 10 minutes at room temperature; reactions were initiated by addition of 10 nM DNA substrate and incubated at 37 °C for 20 min. Reactions were quenched by addition of 5 μL stop solution (95% formamide, 10 mM EDTA, 0.25% (v/v) xylene cyanol, 0.25% (v/v) bromophenol blue) and heated at 95 °C for 3 min. Reactions were analysed by 20% denaturing polyacrylamide gel electrophoresis solution of 19 : 1 acrylamide:bis-acrylamide, BioRad and 7 M urea (Sigma Aldrich) in 1 × TBE (Tris-borate EDTA) buffer. Electrophoresis was carried out at 525 V for 75 minutes; gels were subsequently fixed for 60 minutes in a 50% (v/v) methanol, 10% (v/v) acetic acid solution, and dried at 80 °C for two hours under vacuum. Dried gels were exposed to a Kodak Phosphor imager screen and scanned using a Typhoon 9500 instrument (GE Healthcare), scanned images were quantified using ImageJ.
Suppl. Figure 10. Increasing concentrations (as indicated, in μM) of compounds incubated with 1 nM SNM1B or 2.5 nM SNM1C (room temperature, 10 min), before initiating nuclease reaction by addition of ssDNA (37 °C, 20 min). Products were analysed by 20% denaturing PAGE. Gels are representative versions from a minimum of three independent experimental repeats.
(1 picture or pasted object on this page, not shown here)

Assay [2] addresses T1, SNM1B. The assay can be described thus: real-time fluorescence-based nuclease assay, SNM1B. The class given is biochemical. Here is the method: There is structural similarity between SNM1A, SNM1B, and SNM1C and major mechanistic features are likely conserved between the three nucleases. We therefore tested (13) and other hydroxamic acid analogues for inhibition of SNM1B and SNM1C. Due to differences in catalytic turnover between the three enzymes, different concentrations of SNM1B (1 nM) and SNM1C (2.5 nM) were used compared to that for SNM1A (0.5 nM) in the assays. Note that the substrate utilised for the high-throughput fluorescence based and subsequent SNM1A and SNM1B assays differed slightly for SNM1C reflecting its (primarily) endonucleolytic, rather than exonucleolytic, activity (ESI Fig. 9 ^†).
Fluorescence-based nuclease digestion SNM1A–C assays were performed as described.[30,45] […] Fluorescence was measured using a PHERAstar FSX fluorescent plate reader in fluorescent top read mode using excitation at 495 nm, emission at 525 nm, and cutoff at […]. Fluorescence spectra were measured every 140 s, for 35 min, at 37 °C. The fluorescence intensity of each well was plotted against compound concentration and fitted using a log (inhibitor) response curve using GraphPad Prism software (GraphPad Software, Inc., La Jolla, CA, USA).

Each structure is given as a SMILES string.

For the molecule `C[C@H](Nc1nc(NCc2ccco2)nc2ccc(Cl)cc12)C(=O)NO` [compound 19], in assay [1], the “inhibition of SNM1B in gel-based assay” value is “inhibits each of SNM1A–C”. Moreover, half-maximal inhibition in assay [2] (IC50) required 2.5 µM.

For the origin of these results see paper PMC11134331, “Cell-active small molecule inhibitors validate the SNM1A DNA repair nuclease as a cancer target” (Chemical Science, 2024).
